Experimental findings from ChEMBL document CHEMBL1201862, “PubChem BioAssay data set” (2004) are described below.

Some test systems named below: KM-20L2; NCI-H23; HT-29; SN12C; M14; K562; ACHN; CCRF-CEM; SK-OV-3; A498; CAKI-1; OVCAR-8; SF-539; OVCAR-3; LOX IMVI; UACC-257; PC-3; MCF7; MDA-MB-231; BT-549.
Common to all, as to test: NCI tumour cell line growth inhibition, 48 h

The structures appear in SMILES notation.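 Growth conditions: 96-well plates. Treatment: test compound, 48 hours, 5 concentrations. Analysis: linear interpolation between bracketing concentrations; unreached endpoints set to highest concentration. The concentration for 50% growth inhibition is given as GI50.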 Calls of active or inactive are those of the source. Cut-off read from the data, not from the text of the source: active = GI50 up to about 1.1 µM and inactive = higher. Starred links: 1 amine or outer side, 2 acyl side, 3 side chain; linkers in the order of their positions; H or OH if unused. Positions of bridges follow the written chain, without caps; N, C: chain ends. Non-standard residues stand in square brackets, D forms with d. Residues, ends and D or L forms follow the SMILES beside them. ξ: configuration not given here. *: point of attachment. γ4hArg(2R,3R-(OH)2) = N=C(N)NCCC[C@H](N[*:1])[C@@H](O)[C@@H](O)C(=O)[*:2]; Gln(3S,4R-Me2) = C[C@H]([C@H](N)C(=O)O)[C@@H](C)C(N)=O; X50 = CC(C)C[C@H](C)[C@@H](O)[C@@H](C)C(=O)*; X51 = COC(c1ccc(O)cc1)C(N[*:1])C(=O)[*:2]; NMeQ = CN[C@@H](CCC(N)=O)C(=O)O; Thr(3ξ) = CC(O)[C@H](N)C(=O)O; NMeA = CN[C@@H](C)C(=O)O

As to `C/C(=C\CC/C=C(\C)CC/C=C(\C)CCC1SC1(C)C)CC/C=C(\C)CCC1OC1(C)C` (stereo unspecified), the GI50 with KM-20L2, in the assay with NCI-H23, in the assay on HT-29, in the assay on SN12C, in the assay with M14 and with K562 was > 100 µM (inactive) each time. Further, the GI50 with ACHN, in the assay on CCRF-CEM, with SK-OV-3, with A498, with CAKI-1 and in the assay with OVCAR-8 was > 100 µM (inactive) throughout. For the same molecule, the GI50 in the assay with SF-539 and with OVCAR-3 was > 100 µM (inactive) in each case.

Regarding `CNC(=S)NC1CCCCC1NC(=S)NC` (stereo unspecified), the GI50 with KM-20L2, with NCI-H23, in the assay on HT-29, in the assay on SN12C, in the assay with M14 and in the assay on K562 was > 100 µM (inactive) in each case. For the same molecule, the GI50 in the assay on ACHN, in the assay with CCRF-CEM, in the assay with SK-OV-3, in the assay on CAKI-1, in the assay on OVCAR-8 and in the assay on LOX IMVI was > 100 µM (inactive) in each case. The GI50 in the assay on SF-539 and with OVCAR-3 was > 100 µM (inactive) throughout.

For the molecule `O=C(N/C(=C\c1cccc([N+](=O)[O-])c1)c1nc2ccccc2[nH]1)c1ccccc1`, the GI50 with KM-20L2 was 43.8 µM (inactive); with NCI-H23, 49.1 µM (inactive); in the assay on HT-29, 28.9 µM (inactive); with SN12C it was 68.7 µM (inactive); in the assay with M14 it was 66.8 µM (inactive); in the assay with K562, 50.5 µM (inactive). The GI50 in the assay on ACHN was 51.4 µM (inactive); in the assay with CCRF-CEM, 34.4 µM (inactive); in the assay on SK-OV-3, > 100 µM (inactive); in the assay with A498, 35.8 µM (inactive); in the assay on CAKI-1, 59.4 µM (inactive); in the assay on OVCAR-8 it was 30.3 µM (inactive). The results for the GI50 in the assay with UACC-257, with SF-539 and in the assay with OVCAR-3 were > 100 µM (inactive), 45.6 µM (inactive) and 51.2 µM (inactive), respectively.

Regarding `Cc1ccc(C2=C(c3ccc(C)cc3)C(c3ccc(C)cc3)=C(c3ccc(C)cc3)C2=O)cc1`, the GI50 with KM-20L2, in the assay with NCI-H23, in the assay on HT-29, in the assay with SN12C, with M14 and with K562 was > 100 µM (inactive) each time. For the same molecule, the GI50 in the assay with ACHN, in the assay with CCRF-CEM, in the assay on SK-OV-3, in the assay on A498, in the assay with OVCAR-8 and with UACC-257 was > 100 µM (inactive) throughout. In addition, in the assay on SF-539, the GI50 was > 100 µM (inactive).

Take `CN(C)C(=O)NC(=S)N(C)C`: the GI50 in the assay with KM-20L2, in the assay on NCI-H23, in the assay with HT-29, in the assay with SN12C, in the assay on M14 and in the assay on K562 was > 100 µM (inactive) throughout. The GI50 with ACHN, in the assay on CCRF-CEM, with SK-OV-3, with A498, in the assay on CAKI-1 and in the assay on OVCAR-8 was > 100 µM (inactive) throughout. For the same molecule, the GI50 in the assay with UACC-257 and in the assay on SF-539 was > 100 µM (inactive) in each case.

`CC(C)C(/C=C/c1ccc(Br)cc1)=N\NC(N)=O`: the GI50 in the assay with KM-20L2, in the assay on NCI-H23, in the assay on HT-29, in the assay on SN12C, with M14 and in the assay with K562 was > 100 µM (inactive) in each case. The GI50 in the assay on ACHN, in the assay with CCRF-CEM, with SK-OV-3, in the assay with CAKI-1, in the assay with OVCAR-8 and in the assay with UACC-257 was > 100 µM (inactive) each time. For the same molecule, the GI50 in the assay on LOX IMVI and in the assay on SF-539 was > 100 µM (inactive) each time.

In the case of `COC(=O)c1nc(-c2ccc(Cl)c(Cl)c2)nc2ccc(Cl)cc12`, the GI50 in the assay with KM-20L2 was 21 µM (inactive); in the assay on NCI-H23, 68.5 µM (inactive); with HT-29, > 100 µM (inactive); with SN12C, > 100 µM (inactive); in the assay on K562 it was > 10 µM (inactive); with ACHN it was 44.6 µM (inactive). The GI50 with CCRF-CEM was > 10 µM (inactive); in the assay on SK-OV-3, 20.6 µM (inactive); in the assay on A498, 73.1 µM (inactive); with CAKI-1, > 10 µM (inactive); in the assay on OVCAR-8, 47.4 µM (inactive); with UACC-257, > 100 µM (inactive). The GI50 was 17.5 µM (inactive) in the assay with SF-539 and > 10 µM (inactive) with OVCAR-3.

As for `Cc1cn(C2CC(OC3CCCCO3)C(CO)O2)c(=O)[nH]c1=O` (stereo unspecified), the GI50 in the assay on KM-20L2, with NCI-H23, in the assay on HT-29, with SN12C, in the assay on M14 and in the assay on K562 was > 100 µM (inactive) each time. In addition, the GI50 in the assay with ACHN, with CCRF-CEM, in the assay on SK-OV-3, with A498, in the assay on OVCAR-8 and in the assay with UACC-257 was > 100 µM (inactive) throughout. The GI50 in the assay on LOX IMVI, in the assay with SF-539 and in the assay on OVCAR-3 was > 100 µM (inactive) in each case.

Take `CCc1ccc(/C(C)=N/NC(N)=S)cc1`: the GI50 is > 100 µM (inactive) with KM-20L2; > 100 µM (inactive) with NCI-H23; 90.4 µM (inactive) with HT-29; > 100 µM (inactive) in the assay with M14; 57.3 µM (inactive) with K562; > 100 µM (inactive) in the assay on SK-OV-3. Moreover, the GI50 is 70 µM (inactive) with CAKI-1, > 100 µM (inactive) with OVCAR-8, > 100 µM (inactive) with SF-539 and > 100 µM (inactive) in the assay on OVCAR-3.

As for `CSC(=N/N=C(\C)c1ccc(S(=O)(=O)N(C)c2ccccc2)cc1)SC`, the GI50 with NCI-H23 is > 63.1 µM (inactive); with PC-3, > 62.7 µM (inactive); in the assay with HT-29, > 84.9 µM (inactive); in the assay with MCF7 it was 31.1 µM (inactive); in the assay with SN12C, > 66.2 µM (inactive); with M14, > 63.1 µM (inactive). For the same molecule, the GI50 in the assay with K562 was > 53.1 µM (inactive); with ACHN, > 70 µM (inactive); in the assay on MDA-MB-231, > 61.8 µM (inactive); in the assay on CCRF-CEM it was 15.6 µM (inactive); with SK-OV-3, > 66.5 µM (inactive); in the assay with BT-549, > 50.8 µM (inactive). The GI50 in the assay with A498 is > 63.8 µM (inactive); in the assay on CAKI-1, > 64.9 µM (inactive); in the assay with OVCAR-8, > 100 µM (inactive); in the assay on UACC-257, > 100 µM (inactive); in the assay on LOX IMVI, > 69.7 µM (inactive); in the assay with SF-539, > 52.4 µM (inactive). For the same molecule, the GI50 in the assay with OVCAR-3 is > 63.4 µM (inactive).

For the molecule `CCOc1ccc(C2=NN(CC)C(=O)C(C3C(=O)N(c4ccccc4)N=C3C)C2)cc1` (stereo unspecified), the GI50 with KM-20L2, in the assay on NCI-H23, in the assay with HT-29, with M14, with K562 and in the assay with ACHN was > 100 µM (inactive) in each case. Besides, the GI50 with CCRF-CEM, in the assay on SK-OV-3, in the assay with A498, in the assay on CAKI-1, in the assay with OVCAR-8 and in the assay with UACC-257 was > 100 µM (inactive) throughout. The GI50 in the assay on LOX IMVI, with SF-539 and with OVCAR-3 was > 100 µM (inactive) in each case.

Consider `O=C(CCc1n[nH]c(=S)o1)Nc1cc(Cl)ccc1Cl`, for which the GI50 with KM-20L2 was 48.2 µM (inactive); in the assay with NCI-H23, > 100 µM (inactive); in the assay with HT-29, 52.8 µM (inactive); in the assay with SN12C, > 100 µM (inactive); in the assay on M14, > 100 µM (inactive); in the assay with K562 it was 23.9 µM (inactive). Moreover, the GI50 with ACHN was 61.1 µM (inactive); with CCRF-CEM, 33.8 µM (inactive); with SK-OV-3, > 100 µM (inactive); with A498, > 100 µM (inactive); with CAKI-1, > 100 µM (inactive); in the assay on OVCAR-8, > 100 µM (inactive). Moreover, the GI50 with UACC-257, in the assay with SF-539 and in the assay on OVCAR-3 was > 100 µM (inactive) each time.

Regarding `COC(c1ccc(O)cc1)C1NC(=O)[C@H](CCC(N)=O)N(C)C(=O)[C@H](CC(C)C)NC(=O)[C@@H](CCCN=C(N)N)NC(=O)[C@H](C(C)O)NC(=O)[C@@H](NC(=O)[C@@H](NC(=O)[C@H](O)[C@H](O)[C@H](CCCN=C(N)N)NC(=O)[C@H](C)NC(=O)[C@H](C)[C@H](O)[C@@H](C)CC(C)C)[C@@H](C)[C@@H](C)C(N)=O)[C@@H](C)OC(=O)[C@H](C)N(C)C1=O` (stereo partly drawn) (X50-A[γ4hArg(2R,3R-(OH)2)][Gln(3S,4R-Me2)]T[Thr(3ξ)][dR]L[NMeQ][X51][NMeA]; ester 4-C), the GI50 in the assay on NCI-H23 is 0.0944 µM (active); in the assay with PC-3 it was 0.187 µM (active); with HT-29, 0.0904 µM (active); in the assay on MCF7 it was 0.14 µM (active); with SN12C, 0.149 µM (active); in the assay on M14, 0.115 µM (active). The GI50 with K562 was 0.0847 µM (active); with ACHN it was 0.115 µM (active); in the assay on MDA-MB-231 it was 0.106 µM (active); in the assay with CCRF-CEM it was 0.151 µM (active); in the assay on SK-OV-3 it was 0.189 µM (active); in the assay on BT-549, 0.242 µM (active). In addition, the GI50 is 0.641 µM (active) in the assay on A498; 0.102 µM (active) in the assay on CAKI-1; 0.0889 µM (active) in the assay on OVCAR-8; 0.113 µM (active) with UACC-257; 0.482 µM (active) in the assay on LOX IMVI; 0.0859 µM (active) in the assay with SF-539. Further, the GI50 in the assay with OVCAR-3 is 0.083 µM (active).
